Source: patent US20170246210A1, “EX-VIVO INDUCED REGULATORY MESENCHYMAL STEM CELLS OR MYELOID-DERIVED SUPPRESSOR CELLS AS IMMUNE MODULATORS” (HADASIT MEDICAL RESEARCH SERVICES & DEVELOPMENT LTD, priority 2014, published 2017)

Experiments:
[1] = biological target: T1, aryl hydrocarbon receptor (AhR) (Homo sapiens, UniProt P35869); test: AhR activation in human MSCs (qPCR of AhR dependent gene Cyp1a1); format: cell-based
T1 construct: Mouse and human MSCs were obtained from C57BL/6 mice and healthy donor BM respectively; endogenous in cells; host or cells: primary human MSCs from healthy donor bone marrow
T1 sequence (P35869 11-848): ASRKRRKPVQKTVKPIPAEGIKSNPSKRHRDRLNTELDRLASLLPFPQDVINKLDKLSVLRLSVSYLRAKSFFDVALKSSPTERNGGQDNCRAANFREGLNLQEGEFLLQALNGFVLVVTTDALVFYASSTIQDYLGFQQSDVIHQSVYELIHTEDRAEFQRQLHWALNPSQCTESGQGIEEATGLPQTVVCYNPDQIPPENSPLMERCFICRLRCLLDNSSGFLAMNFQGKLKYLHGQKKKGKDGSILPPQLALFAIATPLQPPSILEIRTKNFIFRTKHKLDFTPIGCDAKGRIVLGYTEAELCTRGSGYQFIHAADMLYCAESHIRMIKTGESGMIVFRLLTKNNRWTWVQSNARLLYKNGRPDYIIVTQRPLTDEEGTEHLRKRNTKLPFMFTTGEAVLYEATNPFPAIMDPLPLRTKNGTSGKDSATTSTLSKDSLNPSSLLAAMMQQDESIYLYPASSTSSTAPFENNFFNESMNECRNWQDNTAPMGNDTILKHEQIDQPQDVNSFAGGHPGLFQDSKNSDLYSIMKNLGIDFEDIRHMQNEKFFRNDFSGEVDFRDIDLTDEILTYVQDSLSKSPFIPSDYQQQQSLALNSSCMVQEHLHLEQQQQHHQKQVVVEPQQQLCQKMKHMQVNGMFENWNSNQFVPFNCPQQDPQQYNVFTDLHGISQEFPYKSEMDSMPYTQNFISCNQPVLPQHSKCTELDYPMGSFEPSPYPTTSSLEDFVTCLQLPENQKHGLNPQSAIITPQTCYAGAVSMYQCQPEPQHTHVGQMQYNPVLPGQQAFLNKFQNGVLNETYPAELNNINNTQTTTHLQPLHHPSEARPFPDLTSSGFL
Experimental: (§1) RNA extraction and PCR analysis. Total cellular RNA was extracted using RNeasy® Mini Kit columns (QIAGEN) according to the manufacturer's protocols. 1 μg of total RNA was used to synthesize cDNA using High-Capacity cDNA kit (Applied Biosystems) following the supplier's instructions. Detection of transcript levels of iNOS, IDO, COX2, IL-6, CYP1a1 and CYP1b1, were performed using the TaqMan Gene Expression Assay Kit (Applied Biosystems), using HPRT-1 as a reference. All primers were purchased from Applied Biosystems. Real-Time PCR reactions were conducted using StepOne Plus (Applied Biosystems). Data was analyzed by StepOne Software version 2.2 (Applied Biosystems).
(§2) To evaluate whether kynurenine activates AhR in mMSCs, the mRNA of treated/non-treated MSCs were tested for the expression level of two AhR dependent genes, Cyp1a1 and Cyp1b1. […] To ascertain that the up-regulation of these genes is AhR dependent, MSCs were treated with kynurenine for 24 hours in the presence/absence of the AhR antagonist CH-223191. The up-regulation of Cyp1a1 by kynurenine is inhibited in the presence of the antagonist both in mouse and human MSCs (previous FIGS. 9B, C).

[2] = biological target: T2, aryl hydrocarbon receptor (AhR) (Mus musculus, UniProt P30561); test: AhR activation in mouse MSCs (qPCR of AhR dependent genes Cyp1a1, Cyp1b1); format: cell-based
T2 construct: Mouse and human MSCs were obtained from C57BL/6 mice and healthy donor BM respectively; endogenous in cells; host or cells: primary mouse MSCs from C57BL/6 mice
T2 sequence (P30561 10-805 limits assumed): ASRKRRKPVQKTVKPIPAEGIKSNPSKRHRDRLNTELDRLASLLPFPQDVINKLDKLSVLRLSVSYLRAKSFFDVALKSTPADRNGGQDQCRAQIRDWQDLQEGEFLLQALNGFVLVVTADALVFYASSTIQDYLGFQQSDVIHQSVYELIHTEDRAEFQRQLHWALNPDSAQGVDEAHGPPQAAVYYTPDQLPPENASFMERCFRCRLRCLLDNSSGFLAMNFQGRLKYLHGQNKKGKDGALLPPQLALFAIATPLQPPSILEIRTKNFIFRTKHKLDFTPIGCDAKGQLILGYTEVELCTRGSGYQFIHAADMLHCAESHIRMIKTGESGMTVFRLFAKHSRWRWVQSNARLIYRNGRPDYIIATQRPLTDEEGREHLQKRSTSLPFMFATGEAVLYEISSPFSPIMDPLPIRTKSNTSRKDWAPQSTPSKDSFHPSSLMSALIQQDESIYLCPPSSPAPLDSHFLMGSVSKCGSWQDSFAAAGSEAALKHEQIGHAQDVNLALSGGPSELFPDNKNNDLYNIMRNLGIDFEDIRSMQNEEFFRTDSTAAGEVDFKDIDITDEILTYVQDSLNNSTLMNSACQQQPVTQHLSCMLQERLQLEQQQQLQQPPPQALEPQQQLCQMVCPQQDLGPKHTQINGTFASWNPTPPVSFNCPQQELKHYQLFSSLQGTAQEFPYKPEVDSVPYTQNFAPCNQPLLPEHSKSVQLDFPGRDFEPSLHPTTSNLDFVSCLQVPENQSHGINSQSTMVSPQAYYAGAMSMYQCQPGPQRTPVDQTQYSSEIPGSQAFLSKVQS
Experimental: as §1, §2

[3] = system: mMSCs; test: FACS analysis of surface expression on mouse MSCs; format: cell-based; details: for EGFR surface expression: kynurenine 5 hours, with/without 10 μM CH-223191 pre-treatment 16 hours; for MHC I expression: FACS
Experimental: (§3) TCT MSCs were treated with 40pM hTGFβ (PeproTech, Israel) for 24 h, and then with a cocktail of 40 pM hTGFβ, 100 ng/ml h/mIFNγ (PeproTech, Israel) and 150 μM Kynurenine (Sigma, Switzerland) for an additional 24 h before they were used for experiments.
(§4) FACS analysis. The phenotype of the MSCs was analyzed by FACS using anti-CD29-PB and anti-hCD45-FITC (Biolegend), anti-CD11b-APC, anti-CD44-PE and anti-mCD45-FITC (SouthernBiotech), anti-CD105-PB, anti-CD73-PE, anti-CD90-PE and anti-Sca1-PE (eBioscience), anti-CD44-V450, anti-CD105-APC, anti-HLA DR-APC and anti-HLA ABC-PE (BD Bioscience) antibodies. The expression level of PD-L1 in mMSCs was analyzed by FACS with anti-B7-H1-PE (PD-L1) (eBioscience). To analyze EGFR internalization in kynurenine treated mMSCs, mMSCs were cultured in the presence of 10 μM CH223191 (Merck-Millipore) for 16 hours and then kynurenine was added for an additional 5 hours. EGFR expression was analyzed by FACS using anti-EGFR-PE (Bioss). FACS was performed using the aMACSQuant analyzer (Miltenyi Biotech, Germany) and the data was analyzed using FCS Express V3 software.

[4] = system: hMSCs; test: qPCR expression analysis in treated human MSCs; format: cell-based; details: for upregulation of COX2 by kynurenine: human MSCs, presence or absence of 10 μM CH-223191
Experimental: Human MSCs (hMSCs). Bone marrow for hMHC was obtained from 17 adult healthy donors, males and females, following informed consent and under institutional Helsinki approval; hMSCs were cultured as previously described and the cells were used for experiments after 3-6 passages (Resnick, Barkats et al. 2013). TCT MSCs were treated with 40pM hTGFβ (PeproTech, Israel) for 24 h, and then with a cocktail of 40 pM hTGFβ, 100 ng/ml h/mIFNγ (PeproTech, Israel) and 150 μM Kynurenine (Sigma, Switzerland) for an additional 24 h before they were used for experiments. RNA extraction and PCR analysis. Total cellular RNA was extracted using RNeasy® Mini Kit columns (QIAGEN) according to the manufacturer's protocols. 1 μg of total RNA was used to synthesize cDNA using High-Capacity cDNA kit (Applied Biosystems) following the supplier's instructions. Detection of transcript levels of iNOS, IDO, COX2, IL-6, CYP1a1 and CYP1b1, were performed using the TaqMan Gene Expression Assay Kit (Applied Biosystems), using HPRT-1 as a reference. All primers were purchased from Applied Biosystems. Real-Time PCR reactions were conducted using StepOne Plus (Applied Biosystems). Data was analyzed by StepOne Software version 2.2 (Applied Biosystems).

[5] = system: mMSCs; test: qPCR expression analysis in treated mouse MSCs; format: cell-based; details: for IL-6 mRNA expression: combination treatments, with/without 10 μM CH-223191; for COX2 mRNA expression: qPCR, combinations of TGFβ, IFNγ, kynurenine
Experimental: MSCs isolation and culture. Mouse MSCs (mMSCs) were obtained from the bone marrow (BM) of C57BL/6 mice. BM cells were cultured at a concentration of 1*10^6 cells/ml in Mesencult basal medium supplemented with MSC stimulatory supplements (StemCell Technologies, Vancouver, BC), at 37° C. with 10% CO2. After 2-3 passages, the cells were harvested and CD11b^+ cells were depleted by EasySep® cell separation kit (StemCell Technologies, Vancouver, BC). Cells from 3 different lines were used for experiments after 5-20 passages.
as §3
RNA extraction and PCR analysis. Total cellular RNA was extracted using RNeasy® Mini Kit columns (QIAGEN) according to the manufacturer's protocols. 1 μg of total RNA was used to synthesize cDNA using High-Capacity cDNA kit (Applied Biosystems) following the supplier's instructions. Detection of transcript levels of iNOS, IDO, COX2, IL-6, CYP1a1 and CYP1b1, were performed using the TaqMan Gene Expression Assay Kit (Applied Biosystems), using HPRT-1 as a reference. All primers were purchased from Applied Biosystems. Real-Time PCR reactions were conducted using StepOne Plus (Applied Biosystems). Data was analyzed by StepOne Software version 2.2 (Applied Biosystems). […]

[6] = system: mMSCs; test: ELISA on supernatants of treated mMSCs; format: cell-based, mouse
Experimental: ELISA. Quantification of PGE2 in supernatants collected from treated mMSCs and from co-cultures with splenocytes after 72 hours of culture, was performed by competitive enzyme-linked immunosorbent assay (ELISA) technique using a commercially available ELISA kit (R&D Systems, Minn., USA). IL-6, IL-17A and IFNγ in supernatants collected from treated mMSCs and/or from co-cultures with splenocytes/PBMCs were quantified using the ELISA Ready SET Go kits (eBioscience, San Diego, Calif., USA), according to the manufacturer's instructions. All determinations were made in triplicates.

[7] = system: hMSCs; test: FACS analysis of surface expression on human MSCs; format: cell-based; details: IFNγ induced
Experimental: as §3, §4

[8] = kynurenine 24 hours, 10 μM CH-223191
[9] = mouse MSCs, presence or absence of 10 μM CH-223191
[10] = murine MSCs, kynurenine alone vs non-treated

Compound: Cc1ccccc1N=Nc1ccc(NC(=O)c2ccnn2C)c(C)c1 [CH-223191]
- up-regulation of Cyp1a1 by kynurenine in presence of antagonist [1, 8]: inhibited
- up-regulation of Cyp1a1 by kynurenine in presence of antagonist [2, 8]: inhibited
- EGFR surface expression [3]: restored EGFR expression on the cell surface
- upregulation of COX2 by kynurenine [4]: reversed
- IL-6 mRNA expression ([5]; mMSCs): partially reversed the effects of kynurenine
- enhanced expression of LIF [5, 9]: reversed
- upregulation of COX2 by kynurenine [5, 9]: reversed

Compound: Nc1ccccc1C(=O)CC(N)C(=O)O (stereo not shown) [kynurenine]
- AhR activation [1]: activates
- AhR activation [2]: activates
- EGFR surface expression [3]: significantly reduced
- COX2 mRNA expression ([4]; hMSCs, addition of kynurenine): significantly elevated
- upregulation of COX2 by kynurenine [4]: AhR dependent
- IL-6 mRNA expression ([5]; mMSCs): restricted this elevation
- HO-1 mRNA expression ([5]; mMSCs, kynurenine added to the DCT): significantly up-regulated
- COX2 mRNA expression ([5]; mMSCs): significant additive effects on the up-regulation
- upregulation of COX2 by kynurenine [5, 9]: AhR dependent
- COX2 expression [5, 10]: no effect
- IDO expression [5, 10]: no effect
- IL6 expression [5, 10]: no effect
- iNOS expression [5, 10]: no effect
- IL-6 secretion ([6]; mMSCs culture medium): restricted this elevation

Compound: IFNγ
- MHC I expression [3]: induces up-regulation
- COX2 mRNA expression ([5]; mMSCs): no effect
- PGE2 secretion ([6]; mMSCs supernatants): no effect

Compound: TGFβ
- MHC I expression [7]: reduced the IFNγ induced expression
- MHC II expression [7]: reduced the IFNγ induced expression
- MHC I expression [3]: reduced the elevated expression
- COX2 mRNA expression ([5]; mMSCs): increased
